From ChEMBL document CHEMBL4007424, “Design and Synthesis of Enantiomerically Pure Decahydroquinoxalines as Potent and Selective κ-Opioid Receptor Agonists with Anti-Inflammatory Activity in Vivo” (J Med Chem, 2017)
Activity calls are given as the source filed them. The calls are words filed in the database; no cut-off is given here.

Experiments:
[1] = organism: Sus scrofa; assay: Displacement of [3H]-(+)-MK 801 from PCP binding site of NMDA receptor in pig brain cortex membranes at 10 uM after 120 mins by solid scintillation counting; format: cell membranes
[2] = biological target: T1, Kappa-type opioid receptor (Homo sapiens, UniProt P41145); assay: Agonist activity at recombinant human kappa-type opioid receptor expressed in HEK293 cells at 1 uM after 30 mins by [35S]GTPgammaS binding assay; format: functional, cell-based
T1 sequence (P41145 whole entry): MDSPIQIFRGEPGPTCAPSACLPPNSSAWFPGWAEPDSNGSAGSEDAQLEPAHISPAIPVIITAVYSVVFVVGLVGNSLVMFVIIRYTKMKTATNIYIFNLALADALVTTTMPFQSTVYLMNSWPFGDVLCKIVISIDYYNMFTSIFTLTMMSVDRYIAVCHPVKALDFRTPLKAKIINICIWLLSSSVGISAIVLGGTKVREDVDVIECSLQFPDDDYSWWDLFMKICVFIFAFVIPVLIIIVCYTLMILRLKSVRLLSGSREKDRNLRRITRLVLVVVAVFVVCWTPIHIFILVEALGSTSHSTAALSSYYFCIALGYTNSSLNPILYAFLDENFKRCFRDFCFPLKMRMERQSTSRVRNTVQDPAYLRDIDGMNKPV

[3] = organism: Rattus norvegicus; assay: Displacement of [3H]-DTG from sigma 2 receptor in rat liver membranes at 1 uM after 120 mins by scintillation counting; format: cell membranes; settings: Membrane
[4] = biological target: Sigma non-opioid intracellular receptor 1 (Cavia porcellus) (UniProt Q60492); assay: Displacement of [3H]-(+)-pentazocine from sigma1-type […] receptor in guinea pig cortex membranes at 1 uM after 120 mins by solid scintillation counting; format: cell membranes
Sigma non-opioid intracellular receptor 1 (Cavia porcellus), sequence (Q60492 whole entry): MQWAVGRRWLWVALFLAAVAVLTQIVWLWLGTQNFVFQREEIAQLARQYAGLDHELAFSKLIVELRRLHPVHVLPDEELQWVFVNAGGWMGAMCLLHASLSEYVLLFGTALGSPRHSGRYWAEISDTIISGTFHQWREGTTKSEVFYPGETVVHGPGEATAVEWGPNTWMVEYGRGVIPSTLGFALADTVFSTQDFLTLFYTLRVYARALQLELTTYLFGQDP

[5] = biological target: T1, Kappa-type opioid receptor; assay: Agonist activity at recombinant human kappa-type opioid receptor expressed in HEK293 cells after 30 mins by [35S]GTPgammaS binding assay; format: functional, cell-based
[6] = organism: Cavia porcellus; assay: Displacement of [3H]DPDPE from delta-type opioid receptor in guinea pig brain membranes at 1 uM after 120 mins by solid scintillation counting; format: cell membranes; settings: Membrane
[7] = Stability of the compound in buffer; format: physicochemical
[8] = biological target: Mu-type opioid receptor (Cavia porcellus) (UniProt P97266); assay: Displacement of [3H]DAMGO from mu-type opioid receptor in guinea pig brain membranes at 1 uM after 120 mins by solid scintillation counting; format: cell membranes; settings: Membrane
Mu-type opioid receptor (Cavia porcellus), sequence (P97266 whole entry): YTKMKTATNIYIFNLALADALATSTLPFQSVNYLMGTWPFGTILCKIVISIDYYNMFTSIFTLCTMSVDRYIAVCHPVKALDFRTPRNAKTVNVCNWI

[9] = biological target: Kappa-type opioid receptor (Cavia porcellus, UniProt P41144); assay: Displacement of [3H]U-69,593 from kappa-type opioid receptor in guinea pig brain membranes after 120 mins by solid scintillation counting; format: cell membranes, Membrane
Kappa-type opioid receptor (Cavia porcellus, UniProt P41144), sequence (P41144 whole entry): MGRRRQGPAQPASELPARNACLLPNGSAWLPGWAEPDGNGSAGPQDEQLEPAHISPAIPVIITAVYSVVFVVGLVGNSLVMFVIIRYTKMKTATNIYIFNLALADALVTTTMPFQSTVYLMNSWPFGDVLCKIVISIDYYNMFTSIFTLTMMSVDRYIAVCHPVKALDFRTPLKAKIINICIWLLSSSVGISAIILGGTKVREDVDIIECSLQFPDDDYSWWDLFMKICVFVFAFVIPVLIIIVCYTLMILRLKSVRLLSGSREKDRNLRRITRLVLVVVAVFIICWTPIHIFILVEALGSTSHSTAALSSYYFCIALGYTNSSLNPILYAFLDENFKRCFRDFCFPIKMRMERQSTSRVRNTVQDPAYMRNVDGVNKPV

[10] = organism: Cavia porcellus; assay: Selectivity ratio of Ki for delta-type opioid receptor in guinea pig brain membranes to Ki for kappa-type opioid receptor in guinea pig brain membranes; format: cell membranes
[11] = system: Mus musculus; assay: (§1) Antiinflammatory activity in oxazolone-induced delayed type hypersensitivity BALB/c mouse model assessed as reduction in ear thickness at 0.5 mg applied topically on ear administered 3 hrs prior to oxazolone challenge on day 7 to 12 post sensitization followed by re-administration of compound on day 13 to 18 without oxazolone challenge measured on day 19; format: functional
[12] = system: Mus musculus; assay: Antiinflammatory activity in tropically administered oxazolone-induced delayed type hypersensitivity BALB/c mouse model assessed as effect on ear weight administered 3 hrs prior to oxazolone challenge on day 7 to 12 post sensitization followed by re-administration of compound on day 13 to 18 without oxazolone challenge measured on day 19; format: functional
[13] = system: Mus musculus; assay: as §1, with “weight” for “thickness”, “0.1 to 2.5” for “0.5”; format: functional
[14] = system: Mus musculus; assay: Antiinflammatory activity in oxazolone-induced delayed type hypersensitivity BALB/c mouse model assessed as effect on histology changes at 0.1 to 2.5 mg applied topically on ear administered 3 hrs prior to oxazolone challenge on day 7 to 12 post sensitization followed by re-administration of compound on day 13 to 18 without oxazolone challenge measured daily prior to treatment from day 7 to 19 by H and E staining based assay; format: functional
[15] = biological target: Mu-type opioid receptor (Cavia porcellus, UniProt P97266); assay: Displacement of [3H]DAMGO from mu-type opioid receptor in guinea pig brain membranes after 120 mins by solid scintillation counting; format: cell membranes, Membrane
Mu-type opioid receptor, sequence (P97266 whole entry): as the sequence (P97266 whole entry) above

[16] = Displacement of [3H]DPDPE from delta-type opioid receptor in guinea pig brain membranes after 120 mins by solid scintillation counting; format: cell membranes, Cavia porcellus, Membrane
[17] = Drug level in Wistar Han rat brain at 1 mg/kg, iv measured 1 hr post compound administration; format: ADME, organism-based; settings: Wistar Han, brain, read-out: Drug uptake
[18] = system: Rattus norvegicus; assay: Toxicity in Wistar Han rat assessed as clinical signs changes at 1 mg/kg, iv after 1 hr; format: organism-based; settings: in vivo
[19] = Plasma concentration in Wistar Han rat at 1 mg/kg, iv measured 1 hr post compound administration; format: ADME, organism-based
[20] = Plasma concentration in Wistar Han rat at 1 mg/kg, iv measured 0.25 hrs post compound administration; format: ADME, organism-based
[21] = Ratio of drug level in brain to plasma in Wistar Han rat at 1 mg/kg, iv after 1 hr; format: ADME, organism-based; settings: read-out: BPR
[22] = system: Rattus norvegicus; assay: Toxicity in Wistar Han rat assessed as induction of slight lethargy at 5 mg/kg, iv after 0.25 hrs; format: organism-based; settings: in vivo
[23] = Plasma concentration in Wistar Han rat at 5 mg/kg, iv measured 1 hr post compound administration; format: ADME, organism-based
[24] = system: Rattus norvegicus; assay: Toxicity in Wistar Han rat assessed as induction of slight lethargy at 5 mg/kg, iv after 1 hr; format: organism-based; settings: in vivo
[25] = Plasma concentration in Wistar Han rat at 5 mg/kg, iv measured 0.25 hrs post compound administration; format: ADME, organism-based
[26] = Ratio of drug level in brain to plasma in Wistar Han rat at 5 mg/kg, iv after 1 hr; format: ADME, organism-based; settings: read-out: BPR
[27] = Drug level in Wistar Han rat brain at 5 mg/kg, iv measured 1 hr post compound administration; format: ADME, organism-based; settings: read-out: Drug uptake

SMILES: CC(C)OC(=O)CN1CCN(C(=O)Cc2ccc(Cl)c(Cl)c2)[C@@H]2[C@@H](N3CCCC3)CCC[C@@H]21
- inhibition [1]: 1%
- Activity [2]: 94%
- inhibition [3]: 26%
- inhibition [4]: 0%
- EC50 [5]: 5 nM
- inhibition [6]: 0%
- Stability [7]: Unstable
- inhibition [8]: 7%
- Ki [9]: 1.4 nM

SMILES: COC(=O)N1CCN(C(=O)Cc2ccc(F)c(Cl)c2)[C@@H]2[C@@H](N3CC[C@H](O)C3)CCC[C@@H]21
- inhibition [1]: 13%
- Activity [2]: 110%
- inhibition [3]: 35%
- inhibition [4]: 0%
- Ratio Ki [10]: 80

SMILES: COC(=O)N1CCN(C(=O)Cc2ccc(F)c(F)c2)[C@@H]2[C@@H](N3CC[C@H](O)C3)CCC[C@@H]21
- Activity [11]: Active
- inhibition [1]: 11%
- Activity [2]: 108%
- inhibition [3]: 10%
- Activity [12]: Dose-dependent effect
- inhibition [4]: 34%
- Activity [13]: Dose-dependent effect
- Activity [14]: Active
- inhibition [8]: 4%

SMILES: COC(=O)N1CCN(C(=O)Cc2ccc(Cl)cc2)[C@@H]2[C@@H](N3CC[C@H](O)C3)CCC[C@@H]21
- inhibition [1]: 7%
- Activity [2]: 103%
- inhibition [3]: 11%
- Activity [12]: Dose-dependent effect
- inhibition [4]: 21%
- Activity [13]: Dose-dependent effect
- Activity [14]: Active

SMILES: COC(=O)N1CCN(C(=O)Cc2ccc(Cl)c(F)c2)[C@@H]2[C@@H](N3CC[C@H](O)C3)CCC[C@@H]21
- Activity [11]: Active
- inhibition [1]: 11%
- Activity [2]: 93%
- inhibition [3]: 0%
- Activity [12]: Dose-dependent effect
- inhibition [4]: 0%
- Activity [13]: Dose-dependent effect
- Activity [14]: Active

SMILES: COC(=O)N1CCN(C(=O)Cc2cccc(Cl)c2)[C@@H]2[C@@H](N3CC[C@H](O)C3)CCC[C@@H]21
- Activity [11]: Active
- inhibition [1]: 4%
- Activity [2]: 102%
- inhibition [3]: 0%
- inhibition [4]: 0%

SMILES: CCOC(=O)CN1CCN(C(=O)Cc2ccc(Cl)c(Cl)c2)[C@@H]2[C@@H](N3CCCC3)CCC[C@@H]21
- inhibition [1]: 0%
- Activity [2]: 106%
- inhibition [3]: 12%
- inhibition [4]: 0%
- EC50 [5]: 3.2 nM
- Ki [15]: 830 nM
- Stability [7]: Unstable
- Ki [16]: 907 nM
- Ki [9]: 0.43 nM

SMILES: COC(=O)N1CCN(C(=O)Cc2ccc(Cl)c(Cl)c2)[C@@H]2[C@@H](N3CC[C@@H](O)C3)CCC[C@@H]21.Cl
- concentration at 1 h [17]: 7.9 ng/g
- Activity [18]: Non-Toxic
- concentration at 1 h [19]: 115 ng/mL
- concentration at 0.25 h [20]: 454 ng/mL
- Kp at 1 h [21]: 0.07

SMILES: COC(=O)CN1CCN(C(=O)Cc2ccc(Cl)c(Cl)c2)[C@@H]2[C@@H](N3CCCC3)CCC[C@@H]21.Cl
- concentration at 1 h [17]: 4.6 ng/g
- Activity [18]: Non-Toxic
- concentration at 1 h [19]: 199 ng/mL
- concentration at 0.25 h [20]: 477 ng/mL
- Kp at 1 h [21]: 0.02

SMILES: COC(=O)N1CCN(C(=O)Cc2ccc(C(F)(F)F)c(Cl)c2)[C@@H]2[C@@H](N3CC[C@H](O)C3)CCC[C@@H]21.Cl
- Activity [22]: Toxic
- concentration at 1 h [23]: 573 ng/mL
- Activity [24]: Toxic
- concentration at 0.25 h [25]: 1860 ng/mL
- Kp at 1 h [26]: 0.17
- concentration at 1 h [27]: 95.8 ng/g
